Assay results from patent publication US20200030368A1, “A POLYMER NETWORK, METHOD FOR PRODUCTION, AND USES THEREOF” (priority 2016, published 2020).

Assays:
S. aureus = assay: Resistance study by serial passaging at sub-MIC; format: cell-based; details: 14 passages at sub-MIC (MIC/2)
Procedure: (§1) Two control antibiotics norfloxacin and colistin were chosen for S. aureus and for A. baumannii, respectively. In case of norfloxacin and colistin also, the initial MIC values were determined against respective bacteria. After the initial MIC experiment, serial passaging was initiated by transferring bacterial suspension grown at the sub-MIC of the polymer/antibiotics and was subjected to another MIC assay. […] The process was repeated for 14 passages for both S. aureus and A. baumannii respectively. The fold increase in MIC for test polymer to the control antibiotics was plotted against the number of passages to determine the propensity of bacterial resistance development.

A. baumannii = assay: Resistance study by serial passaging at sub-MIC; format: cell-based; details: 14 passages at sub-MIC (MIC/2)
Procedure: as §1

## CCn1cc(C(=O)O)c(=O)c2cc(F)c(N3CCNCC3)cc21 [norfloxacin]
S. aureus
  change in MIC on serial passaging: gradual increase in MIC

## colistin
A. baumannii
  change in MIC on serial passaging: gradual increase in MIC
